Test results: ChEMBL document CHEMBL1671770, “Small molecule inhibition of protein depalmitoylation as a new approach towards downregulation of oncogenic Ras signalling” (Bioorg Med Chem, 2011)

Target: Acyl-protein thioesterase 1 (Homo sapiens, UniProt O75608)
Test: Inhibition of APT1

Acyl-protein thioesterase 1, sequence (O75608 whole entry): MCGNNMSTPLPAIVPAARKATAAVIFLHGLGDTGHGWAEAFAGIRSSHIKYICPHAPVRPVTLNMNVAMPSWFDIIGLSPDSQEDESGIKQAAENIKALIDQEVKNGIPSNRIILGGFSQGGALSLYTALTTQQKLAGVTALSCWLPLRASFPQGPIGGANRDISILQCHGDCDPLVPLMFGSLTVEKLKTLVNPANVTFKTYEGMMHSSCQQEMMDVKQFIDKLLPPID

- IC50: 670 nM
SMILES: CCCCCCCCCC[C@@H]1C(=O)O[C@H]1CCc1ccc(OC)c(OC)c1 [PALMOSTATIN B]
